Reference: ChEMBL document CHEMBL3885861, “Open TG-GATES”

Organism: Rattus norvegicus
Test: Open TG-GATES - Regimen: Daily Repeat
Assay type: toxicity, organism-based, Sprague-Dawley
Parameters: regimen Daily Repeat, gender Male, age 6 weeks
Conditions: in vivo, po, route gavage; for Bas / Eos / Fbg / MCHC / Neu / Plat / RBC / Ret / WBC / Lym / MCH / MCV / Mono: tissue Blood; for KIDNEY_L / KIDNEY_R / KIDNEY_TOTAL: tissue Kidney; for ALP / AST / CRE / DBIL / GLC / IP / LDH / PL / TBIL / TC / TG / TP / gamma-GTP / ALT / K / Na / RALB / Ca / Cl: tissue Plasma; for LIVER: tissue Liver
[1] = 0 mg/kg, 72 h, dose level Control, time 3 day
[2] = 0 mg/kg, […], dose level Control, time 14 day
[3] = 0 mg/kg, […], dose level Control, time 28 day
[4] = 1 mg/kg, 72 h, dose level Low, time 3 day
[5] = 1 mg/kg, […], dose level Low, time 14 day
[6] = 1 mg/kg, […], dose level Low, time 28 day
[7] = 3 mg/kg, 72 h, dose level Middle, time 3 day
[8] = 3 mg/kg, […], dose level Middle, time 14 day
[9] = 3 mg/kg, […], dose level Middle, time 28 day
[10] = 10 mg/kg, 72 h, dose level High, time 3 day
[11] = 10 mg/kg, […], dose level High, time 14 day
[12] = 10 mg/kg, […], dose level High, time 28 day

## O=C(O)Cc1ccccc1Nc1c(Cl)cccc1Cl [DICLOFENAC]
[1]
  TERMINAL_BW: 237.4 g
  Bas: 0%
  Eos: 1%
  Fbg: 222.6 mg/dL
  MCHC: 34.5%
  Neu: 21%
  Plat: 120.1 x10_4/uL
  RBC: 626.6 x10_4/ul
  Ret: 4.9%
  WBC: 105.4 x10_2/uL
  KIDNEY_L: 1 g
  KIDNEY_R: 1 g
  KIDNEY_TOTAL: 2 g
  ALP: 974.8 IU/L
  AST: 65 IU/L
  CRE: 0.4 mg/dL
  DBIL: 0.1 mg/dL
  GLC: 193 mg/dL
  IP: 7.8 mg/dL
  LDH: 163.8 IU/L
  PL: 160.6 mg/dL
  TBIL: 0.2 mg/dL
  TC: 74 mg/dL
  TG: 141 mg/dL
  TP: 5.6 g/dL
  gamma-GTP: 1.2 IU/L
[2]
  TERMINAL_BW: 317.2 g
  Bas: 0%
  Eos: 0.8%
  Fbg: 221.6 mg/dL
  Lym: 80.8%
  MCH: 21.5 pg
  MCHC: 35.9%
  MCV: 59.9 fL
  Mono: 2%
  Plat: 106.7 x10_4/uL
  Ret: 4%
  WBC: 92.1 x10_2/uL
  KIDNEY_L: 1.3 g
  KIDNEY_R: 1.3 g
  KIDNEY_TOTAL: 2.6 g
  ALP: 720.8 IU/L
  ALT: 31.2 IU/L
  CRE: 0.4 mg/dL
  DBIL: 0.1 mg/dL
  GLC: 220.2 mg/dL
  IP: 7.2 mg/dL
  K: 3.7 meq/L
  LDH: 170 IU/L
  Na: 140.2 meq/L
  PL: 143.8 mg/dL
  RALB: 3.4 g/dL
  TBIL: 0.2 mg/dL
  TC: 64.2 mg/dL
  TP: 6 g/dL
  gamma-GTP: 1 IU/L
[3]
  TERMINAL_BW: 396.3 g
  Bas: 0%
  Fbg: 219.8 mg/dL
  Lym: 84.2%
  MCH: 20.1 pg
  MCHC: 36.1%
  MCV: 55.9 fL
  Neu: 11.4%
  Plat: 102.6 x10_4/uL
  RBC: 801.6 x10_4/ul
  Ret: 2.3%
  WBC: 127.9 x10_2/uL
  KIDNEY_L: 1.4 g
  KIDNEY_R: 1.4 g
  KIDNEY_TOTAL: 2.8 g
  LIVER: 15.7 g
  ALP: 600.6 IU/L
  AST: 57 IU/L
  CRE: 0.5 mg/dL
  Ca: 10.3 mg/dL
  Cl: 101.8 meq/L
  DBIL: 0.1 mg/dL
  GLC: 240.8 mg/dL
  IP: 6.5 mg/dL
  K: 3.5 meq/L
  LDH: 146.4 IU/L
  Na: 140.4 meq/L
  PL: 151.4 mg/dL
  RALB: 3.6 g/dL
  TBIL: 0.2 mg/dL
  TC: 68.8 mg/dL
  TG: 145.6 mg/dL
  TP: 6.3 g/dL
  gamma-GTP: 0.8 IU/L
[4]
  TERMINAL_BW: 235.7 g
  Bas: 0%
  Eos: 1%
  Fbg: 217.6 mg/dL
  Mono: 3.4%
  Plat: 125.8 x10_4/uL
  RBC: 633.8 x10_4/ul
  Ret: 5%
  WBC: 89.1 x10_2/uL
  KIDNEY_L: 1 g
  KIDNEY_R: 1 g
  KIDNEY_TOTAL: 2.1 g
  LIVER: 11 g
  ALP: 1075.6 IU/L
  AST: 66 IU/L
  CRE: 0.4 mg/dL
  DBIL: 0.1 mg/dL
  GLC: 190 mg/dL
  LDH: 173.4 IU/L
  PL: 164.2 mg/dL
  TBIL: 0.2 mg/dL
  TC: 75.8 mg/dL
  TP: 5.7 g/dL
  gamma-GTP: 1 IU/L
[5]
  TERMINAL_BW: 319.9 g
  Bas: 0%
  Eos: 1%
  Fbg: 224.4 mg/dL
  Lym: 78.4%
  MCHC: 35.7%
  Plat: 114.5 x10_4/uL
  RBC: 699 x10_4/ul
  Ret: 3.8%
  WBC: 100.3 x10_2/uL
  KIDNEY_L: 1.3 g
  KIDNEY_R: 1.3 g
  KIDNEY_TOTAL: 2.6 g
  ALP: 890.6 IU/L
  ALT: 35.2 IU/L
  AST: 66.2 IU/L
  CRE: 0.4 mg/dL
  Ca: 10.6 mg/dL
  DBIL: 0.1 mg/dL
  GLC: 218.4 mg/dL
  IP: 7.8 mg/dL
  K: 3.7 meq/L
  LDH: 192.8 IU/L
  Na: 140.8 meq/L
  PL: 173.4 mg/dL
  RALB: 3.4 g/dL
  TBIL: 0.2 mg/dL
  TC: 81.4 mg/dL
  TG: 151.6 mg/dL
  TP: 5.9 g/dL
  gamma-GTP: 0.4 IU/L
[6]
  TERMINAL_BW: 385.2 g
  Bas: 0%
  Eos: 1.4%
  Lym: 80%
  MCH: 20.1 pg
  MCHC: 36.1%
  MCV: 55.6 fL
  Neu: 15.4%
  Plat: 108.4 x10_4/uL
  RBC: 796.2 x10_4/ul
  Ret: 1.8%
  WBC: 95.4 x10_2/uL
  KIDNEY_L: 1.4 g
  KIDNEY_R: 1.4 g
  KIDNEY_TOTAL: 2.8 g
  LIVER: 14.8 g
  ALP: 610.6 IU/L
  ALT: 29.4 IU/L
  AST: 61.4 IU/L
  CRE: 0.4 mg/dL
  DBIL: 0.088 mg/dL
  GLC: 215.8 mg/dL
  IP: 6.7 mg/dL
  K: 3.5 meq/L
  LDH: 165.4 IU/L
  PL: 141.4 mg/dL
  RALB: 3.4 g/dL
  TBIL: 0.2 mg/dL
  TP: 6.2 g/dL
  gamma-GTP: 0.2 IU/L
[7]
  TERMINAL_BW: 236.5 g
  Bas: 0%
  Eos: 1%
  Fbg: 214.8 mg/dL
  Lym: 79.8%
  MCH: 21.5 pg
  Plat: 125.2 x10_4/uL
  RBC: 641.4 x10_4/ul
  WBC: 112.9 x10_2/uL
  KIDNEY_L: 1 g
  KIDNEY_TOTAL: 2.1 g
  LIVER: 11.2 g
  ALP: 1064.8 IU/L
  ALT: 39.2 IU/L
  AST: 69.2 IU/L
  CRE: 0.3 mg/dL
  DBIL: 0.1 mg/dL
  GLC: 194.8 mg/dL
  IP: 7.1 mg/dL
  LDH: 186 IU/L
  PL: 170.8 mg/dL
  RALB: 3.4 g/dL
  TBIL: 0.2 mg/dL
  TC: 84.2 mg/dL
  TG: 122 mg/dL
  gamma-GTP: 1.2 IU/L
[8]
  TERMINAL_BW: 309.6 g
  Bas: 0%
  Eos: 1%
  Fbg: 226 mg/dL
  MCH: 20.8 pg
  MCHC: 35.6%
  MCV: 58.4 fL
  Neu: 14.2%
  Plat: 116.2 x10_4/uL
  RBC: 705.4 x10_4/ul
  Ret: 3.5%
  WBC: 117.1 x10_2/uL
  ALP: 835 IU/L
  ALT: 35 IU/L
  AST: 70.8 IU/L
  CRE: 0.4 mg/dL
  GLC: 224.2 mg/dL
  IP: 7.6 mg/dL
  K: 3.5 meq/L
  LDH: 198.8 IU/L
  PL: 151.2 mg/dL
  RALB: 3.3 g/dL
  TBIL: 0.1 mg/dL
  TC: 71.8 mg/dL
  TG: 135.8 mg/dL
  gamma-GTP: 0.8 IU/L
[9]
  TERMINAL_BW: 391.3 g
  Bas: 0%
  Eos: 1%
  Fbg: 216.2 mg/dL
  Lym: 83.2%
  MCH: 20 pg
  MCHC: 36.1%
  MCV: 55.4 fL
  Plat: 110.4 x10_4/uL
  RBC: 789.2 x10_4/ul
  Ret: 2.2%
  WBC: 97.8 x10_2/uL
  KIDNEY_L: 1.4 g
  KIDNEY_R: 1.4 g
  KIDNEY_TOTAL: 2.8 g
  LIVER: 15.1 g
  ALP: 618.6 IU/L
  AST: 61 IU/L
  CRE: 0.5 mg/dL
  Ca: 10.3 mg/dL
  DBIL: 0.086 mg/dL
  GLC: 221.2 mg/dL
  IP: 7.1 mg/dL
  K: 3.6 meq/L
  LDH: 177 IU/L
  Na: 140.8 meq/L
  PL: 130.2 mg/dL
  RALB: 3.4 g/dL
  TBIL: 0.1 mg/dL
  TC: 60 mg/dL
  TP: 6.2 g/dL
  gamma-GTP: 0.6 IU/L
[10]
  TERMINAL_BW: 234.4 g
  Bas: 0%
  Eos: 1%
  Fbg: 231.8 mg/dL
  MCH: 22 pg
  MCV: 63.1 fL
  Neu: 22.4%
  Plat: 128.5 x10_4/uL
  RBC: 591.2 x10_4/ul
  Ret: 4.9%
  WBC: 114.7 x10_2/uL
  KIDNEY_L: 1 g
  KIDNEY_R: 1 g
  KIDNEY_TOTAL: 2 g
  LIVER: 11 g
  ALP: 912.8 IU/L
  ALT: 35.6 IU/L
  AST: 65.2 IU/L
  CRE: 0.4 mg/dL
  DBIL: 0.1 mg/dL
  GLC: 186.6 mg/dL
  IP: 7 mg/dL
  LDH: 196.8 IU/L
  Na: 141.6 meq/L
  PL: 156.8 mg/dL
  RALB: 3.3 g/dL
  TBIL: 0.2 mg/dL
  TC: 77.8 mg/dL
  TG: 107.6 mg/dL
  TP: 5.6 g/dL
  gamma-GTP: 0.4 IU/L
[11]
  TERMINAL_BW: 295.1 g
  Bas: 0%
  Eos: 1.4%
  Fbg: 278.8 mg/dL
  Lym: 64%
  MCH: 21.5 pg
  MCHC: 34%
  Mono: 4.4%
  Neu: 29%
  Plat: 157.6 x10_4/uL
  RBC: 593.2 x10_4/ul
  Ret: 12%
  WBC: 192.8 x10_2/uL
  LIVER: 13 g
  ALP: 513.4 IU/L
  ALT: 26.4 IU/L
  AST: 60.4 IU/L
  CRE: 0.4 mg/dL
  GLC: 191.8 mg/dL
  IP: 7.6 mg/dL
  K: 3.9 meq/L
  LDH: 213 IU/L
  PL: 162.6 mg/dL
  RALB: 3 g/dL
  TBIL: 0.1 mg/dL
  TC: 78.4 mg/dL
  TG: 132.2 mg/dL
  TP: 5.4 g/dL
  gamma-GTP: 0.8 IU/L
[12]
  TERMINAL_BW: 341.6 g
  Bas: 0%
  Eos: 1%
  Fbg: 282.4 mg/dL
  Lym: 61.6%
  MCH: 20.3 pg
  MCHC: 32.7%
  Neu: 33%
  Plat: 164.9 x10_4/uL
  RBC: 584.4 x10_4/ul
  WBC: 199.6 x10_2/uL
  KIDNEY_L: 1.3 g
  KIDNEY_R: 1.3 g
  KIDNEY_TOTAL: 2.6 g
  ALP: 538.6 IU/L
  ALT: 25.6 IU/L
  AST: 55.2 IU/L
  CRE: 0.4 mg/dL
  Cl: 104.8 meq/L
  DBIL: 0.07 mg/dL
  GLC: 191.4 mg/dL
  IP: 7.1 mg/dL
  K: 3.9 meq/L
  LDH: 226 IU/L
  Na: 140.8 meq/L
  PL: 146 mg/dL
  RALB: 2.7 g/dL
  TBIL: 0.1 mg/dL
  TC: 68.2 mg/dL
  TG: 123.2 mg/dL
  TP: 5.3 g/dL
  gamma-GTP: 0.8 IU/L
